Laboratory results taken from the NIST ThermoML archive (doi:10.1016/j.jct.2006.03.018).

Assay: xn = mol fraction of the nth substance listed
Conditions: 101 kPa, Liquid

COc1ccccc1 [anisole] + CCO
Conditions | mass density, 298.15 K [kg/m3] | mass density, 303.15 K [kg/m3] | speed of sound, 298.15 K [m/s] | viscosity, 298.15 K [mPa·s] | viscosity, 303.15 K [mPa·s]
x1 = 0.0998 | 822.6 | 818.11 | 1178 | 0.995 | 0.908
x1 = 0.1985 | 852.71 | 848.12 | 1226 | 0.934 | 0.851
x1 = 0.2976 | 878.53 | 873.84 | 1277 | 0.91 | 0.829
x1 = 0.3973 | 900.47 | 895.73 | 1290 | 0.881 | 0.813
x1 = 0.5008 | 920.46 | 915.68 | 1301 | 0.882 | 0.807
x1 = 0.5968 | 936.53 | 931.73 | 1314 | 0.849 | 0.784
x1 = 0.7015 | 952.42 | 947.62 | 1326 | 0.894 | 0.832
x1 = 0.7935 | 964.6 | 960.01 | 1340 | 0.897 | 0.83
x1 = 0.9014 | 977.99 | 973.42 | 1355 | 0.923 | 0.858
x1 = 1 | 989.15 | 984.45 | 1412 | 0.988 | 0.913
